Tests used:
[1] = type: in vivo, rat; settings: rats, oral (gastric gavage), 50 mg CDP-choline, 24 hours
Experimental: The labelled carbon atom is that of the methyl group of the choline moiety.
At different time intervals a certain amount of blood is collected and, after 24 hours from the beginning of the experiment, the animals are sacrificed. The amount of radioactivity is measured in predetermined serum volumes or weight of the various organs or tissues.
The values are expressed as c.p.m.x 10^-3 /gram of organ or tissue.

[2] = Serum kinetics and absolute bioavailability of ^14 C-labelled CDP-choline and "ASONIC" after i.v. and oral administration in Cynomolgus monkeys; type: in vivo, Cynomolgus monkey; settings: for Plasmatic concentration: average and S.D. of 2 monkeys
Experimental: From the end of the curves serum concentration/time, it was possible to calculate the constant of the apparent elimination speed from the organism as well as the relative half-life. These values were utilized in calculating the AUC T30 hours →T.infin. for the total of the curves concentration/time in the same animal. The AUC To →T30 hrs was calculated by means of the trapezium methods. […] For each dosage, a randomized cross-over procedure was used. Seriated blood samples were collected until 30 hours after each administration. From the single curves concentration/time it was possible to calculate the AUC To →T30 hrs. After each administration, including the intravenous one, urine was collected at the following time intervals: 0-24 hours, 24-48 hours and 48-72 hours.

In the case of `C[N+](C)(C)CCOP(=O)(O)OP(=O)([O-])OC[C@H]1O[C@@H](n2ccc(N)nc2=O)[C@H](O)[C@@H]1O` [CDP-choline, cytidine diphosphocholine], the “Radioactivity value in brain” value [1] is reported as 1.55 c.p.m.x 10^-3 /gram of organ o, the “Radioactivity value in kidney” value [1] is reported as 46.3 c.p.m.x 10^-3 /gram of organ o and the “Radioactivity value in liver” value [1] is reported as 65.4 c.p.m.x 10^-3 /gram of organ o. For the same compound, the “Radioactivity value in muscle” value [1] was 3.1 c.p.m.x 10^-3 /gram of organ o, the Plasmatic concentration ([2]; 25 mg/kg i.v., 5') was 10561 ± 2620 DPM/ml serum and the Plasmatic concentration ([2]; 25 mg/kg i.v., 15') was 4088 ± 1299 DPM/ml serum. It also gave a Plasmatic concentration ([2]; 25 mg/kg i.v., 30') of 2846 ± 877 DPM/ml serum, a Plasmatic concentration ([2]; 25 mg/kg i.v., 60') of 2127 ± 704 DPM/ml serum and a Plasmatic concentration ([2]; 25 mg/kg i.v., 2 hr) of 2397 ± 329 DPM/ml serum. It also gave a Plasmatic concentration ([2]; 25 mg/kg i.v., 4 hr) of 3064 ± 431 DPM/ml serum, a Plasmatic concentration ([2]; 25 mg/kg i.v., 7 hr) of 3566 ± 631 DPM/ml serum and a Plasmatic concentration ([2]; 25 mg/kg i.v., 24 hr) of 2035 ± 315 DPM/ml serum. It also gave a Plasmatic concentration ([2]; 25 mg/kg i.v., 30 hr) of 1947 ± 280 DPM/ml serum, a Plasmatic concentration ([2]; 200 mg/kg per os, 15') of 61 DPM/ml serum and a Plasmatic concentration ([2]; 200 mg/kg per os, 30') of 45 DPM/ml serum. For the same compound, the Plasmatic concentration ([2]; 200 mg/kg per os, 45') was 56 ± 4 DPM/ml serum, the Plasmatic concentration ([2]; 200 mg/kg per os, 60') was 91 ± 4.2 DPM/ml serum and the Plasmatic concentration ([2]; 200 mg/kg per os, 4 hr) was 154 ± 26 DPM/ml serum. For the same compound, the Plasmatic concentration ([2]; 200 mg/kg per os, 7 hr) was 774 ± 110 DPM/ml serum, the Plasmatic concentration ([2]; 200 mg/kg per os, 9 hr) was 669 ± 105 DPM/ml serum and the Plasmatic concentration ([2]; 200 mg/kg per os, 24 hr) was 378 ± 55 DPM/ml serum. The Plasmatic concentration ([2]; 200 mg/kg per os, 30 hr) was 344 ± 58 DPM/ml serum, the Plasmatic concentration ([2]; 400 mg/kg per os, 30') was 35 DPM/ml serum and the Plasmatic concentration ([2]; 400 mg/kg per os, 60') was 61 ± 12 DPM/ml serum. The Plasmatic concentration ([2]; 400 mg/kg per os, 90') was 40 ± 16 DPM/ml serum, the Plasmatic concentration ([2]; 400 mg/kg per os, 2 hr) was 78 ± 4.2 DPM/ml serum and the Plasmatic concentration ([2]; 400 mg/kg per os, 3 hr) was 181 ± 9.2 DPM/ml serum. The Plasmatic concentration ([2]; 400 mg/kg per os, 4 hr) was 448 ± 66 DPM/ml serum, the Plasmatic concentration ([2]; 400 mg/kg per os, 6 hr) was 1496 ± 134 DPM/ml serum and the Plasmatic concentration ([2]; 400 mg/kg per os, 7 hr) was 2636 ± 107 DPM/ml serum. For the same compound, the Plasmatic concentration ([2]; 400 mg/kg per os, 8 hr) was 4163 ± 101 DPM/ml serum, the Plasmatic concentration ([2]; 400 mg/kg per os, 9 hr) was 4813 ± 513 DPM/ml serum and the Plasmatic concentration ([2]; 400 mg/kg per os, 24 hr) was 536 ± 122 DPM/ml serum. It also gave a Plasmatic concentration ([2]; 400 mg/kg per os, 30 hr) of 470 ± 98 DPM/ml serum, a Serum concentration ([2]; monkey no. 1, 25 mg/kg i.v., 5') of 8708 DPM/ml and a Serum concentration ([2]; monkey no. 1, 25 mg/kg i.v., 15') of 3169 DPM/ml. The Serum concentration ([2]; monkey no. 1, 25 mg/kg i.v., 30') was 2226 DPM/ml, the Serum concentration ([2]; monkey no. 1, 25 mg/kg i.v., 60') was 1629 DPM/ml and the Serum concentration ([2]; monkey no. 1, 25 mg/kg i.v., 2 hr) was 2165 DPM/ml. The Serum concentration ([2]; monkey no. 1, 25 mg/kg i.v., 4 hr) was 2760 DPM/ml, the Serum concentration ([2]; monkey no. 1, 25 mg/kg i.v., 7 hr) was 3120 DPM/ml and the Serum concentration ([2]; monkey no. 1, 25 mg/kg i.v., 24 hr) was 1812 DPM/ml. It also gave a Serum concentration ([2]; monkey no. 1, 25 mg/kg i.v., 30 hr) of 1749 DPM/ml, a Serum concentration ([2]; monkey no. 1, 200 mg/kg per os, 30') of 45 DPM/ml and a Serum concentration ([2]; monkey no. 1, 200 mg/kg per os, 45') of 53 DPM/ml. For the same compound, the Serum concentration ([2]; monkey no. 1, 200 mg/kg per os, 60') was 88 DPM/ml, the Serum concentration ([2]; monkey no. 1, 200 mg/kg per os, 7 hr) was 852 DPM/ml and the Serum concentration ([2]; monkey no. 1, 200 mg/kg per os, 9 hr) was 743 DPM/ml. It also gave a Serum concentration ([2]; monkey no. 1, 200 mg/kg per os, 24 hr) of 339 DPM/ml, a Serum concentration ([2]; monkey no. 1, 400 mg/kg per os, 30') of 35 DPM/ml and a Serum concentration ([2]; monkey no. 1, 400 mg/kg per os, 60') of 52 DPM/ml. It also gave a Serum concentration ([2]; monkey no. 1, 400 mg/kg per os, 90') of 29 DPM/ml, a Serum concentration ([2]; monkey no. 1, 400 mg/kg per os, 2 hr) of 75 DPM/ml and a Serum concentration ([2]; monkey no. 1, 400 mg/kg per os, 3 hr) of 187 DPM/ml. It also gave a Serum concentration ([2]; monkey no. 1, 400 mg/kg per os, 4 hr) of 401 DPM/ml, a Serum concentration ([2]; monkey no. 1, 400 mg/kg per os, 6 hr) of 1590 DPM/ml and a Serum concentration ([2]; monkey no. 1, 400 mg/kg per os, 7 hr) of 2712 DPM/ml. For the same compound, the Serum concentration ([2]; monkey no. 1, 400 mg/kg per os, 8 hr) was 4092 DPM/ml, the Serum concentration ([2]; monkey no. 1, 400 mg/kg per os, 9 hr) was 5175 DPM/ml and the Serum concentration ([2]; monkey no. 1, 400 mg/kg per os, 24 hr) was 622 DPM/ml. For the same compound, the Serum concentration ([2]; monkey no. 1, 400 mg/kg per os, 30 hr) was 540 DPM/ml, the Serum concentration ([2]; monkey no. 2, 25 mg/kg i.v., 5') was 12414 DPM/ml and the Serum concentration ([2]; monkey no. 2, 25 mg/kg i.v., 15') was 5007 DPM/ml. It also gave a Serum concentration ([2]; monkey no. 2, 25 mg/kg i.v., 30') of 3467 DPM/ml.

Reference: patent US4386077A (Made Italiana s.r.l, priority 1981, dated 1983)
